Experimental data reported in EP4745135A1 (Gluetacs Therapeutics (Shanghai) Co., Ltd., priority 2023, dated 2025).

Experiments:
CK1α = target: T1, CK1α (Homo sapiens, UniProt P48729+Q96SW2); experiment: Western blot, degradation of substrate protein in hPBMCs; type: cell-based
T1 construct: effects of the compounds of the present disclosure on the expression of target proteins in cells; endogenous in cells; host or cells: human PBMCs (Milecell Biotechnologies)

IKZF1 = target: T2, IKZF1 (Homo sapiens, UniProt Q13422+Q96SW2); experiment: as above; type: cell-based
T2 construct: effects of the compounds of the present disclosure on the expression of target proteins in cells; endogenous in cells; host or cells: human PBMCs (Milecell Biotechnologies)
T2 sequence (Q13422 whole entry): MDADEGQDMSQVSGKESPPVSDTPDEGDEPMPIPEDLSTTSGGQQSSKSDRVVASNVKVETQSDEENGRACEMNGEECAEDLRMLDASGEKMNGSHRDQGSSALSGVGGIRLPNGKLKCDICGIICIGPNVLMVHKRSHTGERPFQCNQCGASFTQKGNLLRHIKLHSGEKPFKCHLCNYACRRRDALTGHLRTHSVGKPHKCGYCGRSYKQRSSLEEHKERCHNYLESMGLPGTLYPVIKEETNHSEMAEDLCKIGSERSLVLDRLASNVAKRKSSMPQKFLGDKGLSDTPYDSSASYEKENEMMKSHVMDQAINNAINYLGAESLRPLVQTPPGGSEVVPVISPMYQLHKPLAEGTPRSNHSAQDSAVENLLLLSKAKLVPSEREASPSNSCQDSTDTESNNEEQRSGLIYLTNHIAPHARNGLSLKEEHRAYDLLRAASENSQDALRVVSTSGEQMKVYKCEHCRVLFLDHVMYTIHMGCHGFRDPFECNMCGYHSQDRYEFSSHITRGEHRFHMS
T2 sequence (Q96SW2 whole entry): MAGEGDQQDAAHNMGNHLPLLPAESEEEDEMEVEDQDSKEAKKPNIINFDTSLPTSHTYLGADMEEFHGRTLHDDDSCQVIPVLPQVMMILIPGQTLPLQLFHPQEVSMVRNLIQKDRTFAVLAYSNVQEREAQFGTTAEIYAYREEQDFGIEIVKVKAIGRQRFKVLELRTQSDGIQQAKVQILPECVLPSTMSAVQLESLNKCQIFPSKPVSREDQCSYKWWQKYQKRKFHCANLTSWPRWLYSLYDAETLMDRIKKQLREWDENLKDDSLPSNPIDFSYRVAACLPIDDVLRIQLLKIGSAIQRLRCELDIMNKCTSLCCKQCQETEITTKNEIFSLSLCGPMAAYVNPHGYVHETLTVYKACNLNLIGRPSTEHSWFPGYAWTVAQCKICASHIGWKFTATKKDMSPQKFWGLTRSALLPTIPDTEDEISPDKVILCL
T2 sequence (Q16531 whole entry partner): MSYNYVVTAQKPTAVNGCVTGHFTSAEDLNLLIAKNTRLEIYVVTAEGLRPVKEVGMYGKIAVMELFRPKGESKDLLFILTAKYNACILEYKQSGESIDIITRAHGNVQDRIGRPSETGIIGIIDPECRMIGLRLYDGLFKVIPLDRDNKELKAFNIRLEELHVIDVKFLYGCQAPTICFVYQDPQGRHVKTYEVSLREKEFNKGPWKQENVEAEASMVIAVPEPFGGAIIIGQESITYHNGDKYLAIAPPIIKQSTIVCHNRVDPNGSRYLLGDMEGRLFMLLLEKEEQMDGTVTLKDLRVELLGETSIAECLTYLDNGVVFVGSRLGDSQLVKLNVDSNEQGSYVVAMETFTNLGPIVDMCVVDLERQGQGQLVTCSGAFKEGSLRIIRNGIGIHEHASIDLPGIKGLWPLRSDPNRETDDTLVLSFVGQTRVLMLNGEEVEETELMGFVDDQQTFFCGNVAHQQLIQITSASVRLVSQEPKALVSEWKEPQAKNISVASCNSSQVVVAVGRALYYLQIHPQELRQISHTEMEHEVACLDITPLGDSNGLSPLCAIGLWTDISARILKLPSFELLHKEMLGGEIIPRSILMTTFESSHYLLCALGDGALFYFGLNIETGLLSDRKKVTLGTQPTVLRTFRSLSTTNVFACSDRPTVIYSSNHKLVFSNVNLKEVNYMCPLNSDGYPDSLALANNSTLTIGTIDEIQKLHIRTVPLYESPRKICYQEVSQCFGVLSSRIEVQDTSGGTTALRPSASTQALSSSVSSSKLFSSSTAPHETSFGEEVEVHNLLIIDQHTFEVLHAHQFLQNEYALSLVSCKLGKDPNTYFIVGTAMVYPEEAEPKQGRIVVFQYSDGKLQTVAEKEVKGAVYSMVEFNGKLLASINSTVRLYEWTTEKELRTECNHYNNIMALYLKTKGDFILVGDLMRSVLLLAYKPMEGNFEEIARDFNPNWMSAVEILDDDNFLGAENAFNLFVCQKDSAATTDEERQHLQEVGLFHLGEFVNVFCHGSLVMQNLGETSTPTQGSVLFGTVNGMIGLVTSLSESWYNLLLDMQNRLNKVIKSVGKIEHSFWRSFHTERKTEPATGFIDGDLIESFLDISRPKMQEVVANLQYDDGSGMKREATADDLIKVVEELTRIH

IKZF2 = target: T3, IKZF2 (Homo sapiens, UniProt Q96SW2+Q9UKS7); experiment: as above; type: cell-based
T3 construct: effects of the compounds of the present disclosure on the expression of target proteins in cells; endogenous in cells; host or cells: human PBMCs (Milecell Biotechnologies)
T3 sequence (Q9UKS7 whole entry): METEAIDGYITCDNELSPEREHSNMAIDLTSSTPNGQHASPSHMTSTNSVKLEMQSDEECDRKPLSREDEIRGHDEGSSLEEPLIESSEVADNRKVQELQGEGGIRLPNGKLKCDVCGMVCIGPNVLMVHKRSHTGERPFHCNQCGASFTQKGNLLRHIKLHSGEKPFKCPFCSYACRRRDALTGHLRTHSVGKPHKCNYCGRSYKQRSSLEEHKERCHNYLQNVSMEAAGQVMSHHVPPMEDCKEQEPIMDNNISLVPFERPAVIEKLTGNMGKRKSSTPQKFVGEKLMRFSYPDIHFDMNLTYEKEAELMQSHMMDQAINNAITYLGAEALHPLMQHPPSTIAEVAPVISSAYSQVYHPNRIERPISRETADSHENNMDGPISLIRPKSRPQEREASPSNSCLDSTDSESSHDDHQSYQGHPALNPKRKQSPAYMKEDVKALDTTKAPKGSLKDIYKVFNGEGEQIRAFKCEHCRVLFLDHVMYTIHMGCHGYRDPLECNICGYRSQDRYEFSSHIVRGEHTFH
T3 sequence (Q96SW2 whole entry): as the sequence (Q96SW2 whole entry) above
T3 sequence (Q16531 whole entry partner): as the sequence (Q16531 whole entry partner) above

IKZF3 = target: T4, IKZF3 (Homo sapiens, UniProt Q96SW2+Q9UKT9); experiment: as above; type: cell-based
T4 construct: effects of the compounds of the present disclosure on the expression of target proteins in cells; endogenous in cells; host or cells: human PBMCs (Milecell Biotechnologies)
T4 sequence (Q9UKT9 whole entry): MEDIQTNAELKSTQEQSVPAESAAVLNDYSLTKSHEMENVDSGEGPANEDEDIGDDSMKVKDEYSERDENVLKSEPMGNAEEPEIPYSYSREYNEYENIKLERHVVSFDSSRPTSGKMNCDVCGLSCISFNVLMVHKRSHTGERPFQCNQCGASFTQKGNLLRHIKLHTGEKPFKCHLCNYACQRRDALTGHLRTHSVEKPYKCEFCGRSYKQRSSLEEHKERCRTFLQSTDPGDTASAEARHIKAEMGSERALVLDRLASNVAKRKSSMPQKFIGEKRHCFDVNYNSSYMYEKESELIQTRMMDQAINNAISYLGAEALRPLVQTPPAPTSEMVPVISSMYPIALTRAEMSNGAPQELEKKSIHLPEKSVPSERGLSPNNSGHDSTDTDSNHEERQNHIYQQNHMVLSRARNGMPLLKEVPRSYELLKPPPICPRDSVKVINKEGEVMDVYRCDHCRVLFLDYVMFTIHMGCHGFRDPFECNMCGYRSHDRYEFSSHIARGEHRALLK
T4 sequence (Q96SW2 whole entry): as the sequence (Q96SW2 whole entry) above
T4 sequence (Q16531 whole entry partner): as the sequence (Q16531 whole entry partner) above

WEE1 = target: T5, WEE1 (Homo sapiens, UniProt P30291+Q96SW2); experiment: as above; type: cell-based
T5 construct: effects of the compounds of the present disclosure on the expression of target proteins in cells; endogenous in cells; host or cells: human PBMCs (Milecell Biotechnologies)
T5 sequence (P30291 whole entry): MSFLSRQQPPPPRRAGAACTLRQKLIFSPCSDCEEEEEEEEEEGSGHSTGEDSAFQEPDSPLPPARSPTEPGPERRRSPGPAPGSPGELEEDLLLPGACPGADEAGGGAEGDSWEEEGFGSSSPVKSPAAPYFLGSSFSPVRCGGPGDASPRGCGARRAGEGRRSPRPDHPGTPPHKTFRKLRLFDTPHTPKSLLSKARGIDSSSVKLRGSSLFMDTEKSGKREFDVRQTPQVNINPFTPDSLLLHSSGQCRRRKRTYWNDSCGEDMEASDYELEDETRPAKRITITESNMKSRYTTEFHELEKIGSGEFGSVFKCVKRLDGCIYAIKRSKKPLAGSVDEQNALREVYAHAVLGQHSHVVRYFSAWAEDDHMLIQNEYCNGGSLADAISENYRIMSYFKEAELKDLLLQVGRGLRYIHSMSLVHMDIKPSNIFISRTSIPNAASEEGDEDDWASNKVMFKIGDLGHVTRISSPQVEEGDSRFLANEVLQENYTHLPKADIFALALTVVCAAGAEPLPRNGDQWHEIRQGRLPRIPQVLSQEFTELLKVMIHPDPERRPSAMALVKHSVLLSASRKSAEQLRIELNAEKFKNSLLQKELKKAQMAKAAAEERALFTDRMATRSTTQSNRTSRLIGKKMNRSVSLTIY
T5 sequence (Q96SW2 whole entry): as the sequence (Q96SW2 whole entry) above
T5 sequence (Q16531 whole entry partner): as the sequence (Q16531 whole entry partner) above

GSPT1 = experiment: as above; type: cell-based, Human
[1] = target: T6, human Cereblon WT GST-tagged protein (Homo sapiens, UniProt Q96SW2); experiment: CRBN-binding affinity, HTRF (CEREBLON BINDING kit); settings: for inhibition at 0.5 µM: read-out: Inhibition Rate at 0.5 µM (%); for inhibition at 2 µM: read-out: Inhibition Rate at 2 µM (%)
T6 construct: purchased CISBIO 64BDCRBNPEH
T6 sequence (Q96SW2 whole entry): as the sequence (Q96SW2 whole entry) above

[2] = Western blot, 24 hours of compound treatment, compounds tested at 50 nM and 500 nM (concentration for the table not stated)
[3] = 24 hours treatment, compounds at 50 nM and 500 nM (concentration behind the class not stated)

T1 sequence (P48729 whole entry): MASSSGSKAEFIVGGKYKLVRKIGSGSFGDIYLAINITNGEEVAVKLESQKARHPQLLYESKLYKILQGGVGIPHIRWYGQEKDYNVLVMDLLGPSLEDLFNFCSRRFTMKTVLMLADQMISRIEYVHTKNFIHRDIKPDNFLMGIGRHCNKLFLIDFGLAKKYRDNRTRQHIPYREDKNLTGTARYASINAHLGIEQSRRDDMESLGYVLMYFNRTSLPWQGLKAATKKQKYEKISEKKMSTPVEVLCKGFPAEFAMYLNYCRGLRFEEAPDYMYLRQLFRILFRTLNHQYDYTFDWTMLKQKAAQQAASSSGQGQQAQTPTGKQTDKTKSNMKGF
T1 sequence (Q96SW2 whole entry): as the sequence (Q96SW2 whole entry) above
T1 sequence (Q16531 whole entry partner): as the sequence (Q16531 whole entry partner) above

Structure (SMILES)	CK1α substrate protein remaining % (CK1α; [2])	IKZF 1 substrate protein remaining % (IKZF1; [2])	IKZF2 substrate protein remaining % (IKZF2; [2])	IKZF3 substrate protein remaining % (IKZF3; [2])	Wee1 substrate protein remaining % (WEE1; [2])	GSPT1 substrate protein remaining % (GSPT1; [2])	inhibition at 0.5 µM [1]	inhibition at 2 µM [1]	CK1α substrate protein remaining % (CK1α; [3])	IKZF 1 substrate protein remaining % (IKZF1; [3])	IKZF2 substrate protein remaining % (IKZF2; [3])	IKZF3 substrate protein remaining % (IKZF3; [3])	Wee1 substrate protein remaining % (WEE1; [3])	GSPT1 substrate protein remaining % (GSPT1; [3])
O=C1CCC(N2Cc3cc(CN4C5CC4CN(C(c4ccccc4)c4ccccc4)C5)ccc3C2=S)C(=O)N1 (centres unmarked) [GT-07738, 3-(5-((3-benzhydryl-3,6-diazabicyclo[3.1.1]heptan-6-yl)methyl)-1-thioxoisoindolin-2-yl)piperidine-2,6-dione]	B (80%< substrate protein remaining %≤ 100%)	A (0% ≤ substrate protein remaining % ≤ 80%)	A (0% ≤ substrate protein remaining % ≤ 80%)	B (80%< substrate protein remaining %≤ 100%)	B (80%< substrate protein remaining %≤ 100%)	A (0% ≤ substrate protein remaining % ≤ 80%)	53 to 60%	80 to 100%	–	–	–	–	–	–
O=C1CCC(N2Cc3cc(CN4C[C@@H]5C[C@H]4CN5C(c4ccccc4)c4ccccc4)ccc3C2=S)C(=O)N1 (stereo partly drawn) [GT-07739, 3-(5-(((1S,4S)-5-benzhydryl-2,5-diazabicyclo[2.2.1]heptan-2-yl)methyl)-1-thioxoisoindolin-2-yl)piperidine-2,6-dione]	B (80%< substrate protein remaining %≤ 100%)	A (0% ≤ substrate protein remaining % ≤ 80%)	A (0% ≤ substrate protein remaining % ≤ 80%)	B (80%< substrate protein remaining %≤ 100%)	B (80%< substrate protein remaining %≤ 100%)	A (0% ≤ substrate protein remaining % ≤ 80%)	60 to 80%	80 to 100%	–	–	–	–	–	–
O=C1CCC(N2Cc3cc(CN4C[C@H]5C[C@@H]4CN5C(c4ccccc4)c4ccccc4)ccc3C2=S)C(=O)N1 (stereo partly drawn) [GT-07740, 3-(5-(((1R,4R)-5-benzhydryl-2,5-diazabicyclo[2.2.1]heptan-2-yl)methyl)-1-thioxoisoindolin-2-yl)piperidine-2,6-dione]	B (80%< substrate protein remaining %≤ 100%)	A (0% ≤ substrate protein remaining % ≤ 80%)	A (0% ≤ substrate protein remaining % ≤ 80%)	B (80%< substrate protein remaining %≤ 100%)	B (80%< substrate protein remaining %≤ 100%)	B (80%< substrate protein remaining %≤ 100%)	53 to 60%	80 to 100%	–	–	–	–	–	–
CC1(C)CN(Cc2ccc3c(c2)CN(C2CCC(=O)NC2=O)C3=S)CCN1C(c1ccccc1)c1ccccc1 (centres unmarked) [GT-07845, 3-(5-((4-benzhydryl-3,3-dimethylpiperazin-1-yl)methyl)-1-thioxoisoindolin-2-yl)piperidine-2,6-dione]	B (80%< substrate protein remaining %≤ 100%)	A (0% ≤ substrate protein remaining % ≤ 80%)	A (0% ≤ substrate protein remaining % ≤ 80%)	B (80%< substrate protein remaining %≤ 100%)	A (0% ≤ substrate protein remaining % ≤ 80%)	B (80%< substrate protein remaining %≤ 100%)	40 to 53%	60 to 80%	–	–	–	–	–	–
O=C1CCC(N2Cc3cc(CN4CC5CCC4CN5C(c4ccccc4)c4ccccc4)ccc3C2=S)C(=O)N1 (centres unmarked) [GT-07847, 3-(5-((5-benzhydryl-2,5-diazabicyclo[2.2.2]octan-2-yl)methyl)-1-thioxoisoindolin-2-yl)piperidine-2,6-dione]	B (80%< substrate protein remaining %≤ 100%)	B (80%< substrate protein remaining %≤ 100%)	A (0% ≤ substrate protein remaining % ≤ 80%)	A (0% ≤ substrate protein remaining % ≤ 80%)	A (0% ≤ substrate protein remaining % ≤ 80%)	A (0% ≤ substrate protein remaining % ≤ 80%)	53 to 60%	80 to 100%	–	–	–	–	–	–
O=C1CCC(N2Cc3cc(CN4CCCN(C(c5ccccc5)c5ccccc5)CC4)ccc3C2=S)C(=O)N1 (centres unmarked) [GT-07848, 3-(5-((4-benzhydryl-1,4-diazepan-1-yl)methyl)-1-thioxoisoindolin-2-yl)piperidine-2,6-dione]	B (80%< substrate protein remaining %≤ 100%)	B (80%< substrate protein remaining %≤ 100%)	A (0% ≤ substrate protein remaining % ≤ 80%)	A (0% ≤ substrate protein remaining % ≤ 80%)	B (80%< substrate protein remaining %≤ 100%)	A (0% ≤ substrate protein remaining % ≤ 80%)	30 to 40%	80 to 100%	–	–	–	–	–	–
CC1(C)CCC(CN2CC3CC(C2)N3Cc2ccc3c(c2)CN(C2CCC(=O)NC2=O)C3=S)=C(c2ccc(Cl)cc2)C1 (centres unmarked) [GT-08160, 3-(5-((3-((4'-chloro-5,5-dimethyl-3,4,5,6-tetrahydro-[1,1'-biphenyl]-2-yl)methyl)-3,6-diazabicyclo[3.1.1]heptan-6-yl)methyl)-1-thioxoisoindolin-2-yl)piperidine-2,6-dione]	–	–	–	–	–	–	53 to 60%	80 to 100%	B (80%< substrate protein remaining %≤ 100%)	B (80%< substrate protein remaining %≤ 100%)	A (0% ≤ substrate protein remaining % ≤ 80%)	A (0% ≤ substrate protein remaining % ≤ 80%)	A (0% ≤ substrate protein remaining % ≤ 80%)	A (0% ≤ substrate protein remaining % ≤ 80%)
CC1(C)CCC(CN2C3CC2CN(Cc2ccc4c(c2)CN(C2CCC(=O)NC2=O)C4=S)C3)=C(c2ccc(Cl)cc2)C1 (centres unmarked) [GT-08161, 3-(5-((6-((4'-chloro-5,5-dimethyl-3,4,5,6-tetrahydro-[1,1'-biphenyl]-2-yl)methyl)-3,6-diazabicyclo[3.1.1]heptan-3-yl)methyl)-1-thioxoisoindolin-2-yl)piperidine-2,6-dione]	–	–	–	–	–	–	40 to 53%	80 to 100%	B (80%< substrate protein remaining %≤ 100%)	B (80%< substrate protein remaining %≤ 100%)	A (0% ≤ substrate protein remaining % ≤ 80%)	A (0% ≤ substrate protein remaining % ≤ 80%)	A (0% ≤ substrate protein remaining % ≤ 80%)	A (0% ≤ substrate protein remaining % ≤ 80%)
CC1(C)CCC(CN2C3CCC2CN(Cc2ccc4c(c2)CN(C2CCC(=O)NC2=O)C4=S)C3)=C(c2ccc(Cl)cc2)C1 (centres unmarked) [GT-08162, 3-(5-((8-((4'-chloro-5,5-dimethyl-3,4,5,6-tetrahydro-[1,1'-biphenyl]-2-yl)methyl)-3,8-diazabicyclo[3.2.1]octan-3-yl)methyl)-1-thioxoisoindolin-2-yl)piperidine-2,6-dione]	–	–	–	–	–	–	30 to 40%	60 to 80%	B (80%< substrate protein remaining %≤ 100%)	B (80%< substrate protein remaining %≤ 100%)	B (80%< substrate protein remaining %≤ 100%)	B (80%< substrate protein remaining %≤ 100%)	A (0% ≤ substrate protein remaining % ≤ 80%)	B (80%< substrate protein remaining %≤ 100%)
CC1(C)CCC(CN2CC3CCC(C2)N3Cc2ccc3c(c2)CN(C2CCC(=O)NC2=O)C3=S)=C(c2ccc(Cl)cc2)C1 (centres unmarked) [GT-08163, 3-(5-((3-((4'-chloro-5,5-dimethyl-3,4,5,6-tetrahydro-[1,1'-biphenyl]-2-yl)methyl)-3,8-diazabicyclo[3.2.1]octan-8-yl)methyl)-1-thioxoisoindolin-2-yl)piperidine-2,6-dione]	–	–	–	–	–	–	53 to 60%	60 to 80%	B (80%< substrate protein remaining %≤ 100%)	A (0% ≤ substrate protein remaining % ≤ 80%)	B (80%< substrate protein remaining %≤ 100%)	B (80%< substrate protein remaining %≤ 100%)	A (0% ≤ substrate protein remaining % ≤ 80%)	A (0% ≤ substrate protein remaining % ≤ 80%)
